# Test results reported in the NIST ThermoML archive (doi:10.1021/acs.jced.8b00855).
# Numbers after ± are expanded uncertainties.
# Assays:
# [1] = Liquid, Ebulliometric method (Recirculating still)
# [2] = Boiling temperature at pressure P; conditions: Liquid, Ebulliometric method (Recirculating still)
vapor or sublimation pressure ([1]; 403.4 K) [kPa],vapor or sublimation pressure ([1]; 405.8 K) [kPa],vapor or sublimation pressure ([1]; 408.4 K) [kPa],vapor or sublimation pressure ([1]; 409.8 K) [kPa],vapor or sublimation pressure ([1]; 413.4 K) [kPa],Boiling temperature at pressure P ([2]; 71.47 kPa) [°C],Boiling temperature at pressure P ([2]; 78.36 kPa) [°C],Boiling temperature at pressure P ([2]; 85.5 kPa) [°C],Boiling temperature at pressure P ([2]; 89.49 kPa) [°C],Boiling temperature at pressure P ([2]; 102 kPa) [°C],vapor or sublimation pressure ([1]; 367.9 K) [kPa],vapor or sublimation pressure ([1]; 370.6 K) [kPa],vapor or sublimation pressure ([1]; 373.6 K) [kPa],vapor or sublimation pressure ([1]; 375.1 K) [kPa],vapor or sublimation pressure ([1]; 379.3 K) [kPa],Boiling temperature at pressure P ([2]; 72.04 kPa) [°C],Boiling temperature at pressure P ([2]; 78.83 kPa) [°C],Boiling temperature at pressure P ([2]; 85.94 kPa) [°C],Boiling temperature at pressure P ([2]; 89.82 kPa) [°C],Boiling temperature at pressure P ([2]; 101.39 kPa) [°C],SMILES
71.5 ± 2.7,77.95 ± 2.8,85.5 ± 2.9,89.69 ± 3.3,101.79 ± 3.4,130.2 ± 1,133.1 ± 1,135.5 ± 1,136.2 ± 1,140.5 ± 1,–,–,–,–,–,–,–,–,–,–,OC1CCCC1 [cyclopentanol]
–,–,–,–,–,–,–,–,–,–,71.5 ± 2.4,77.95 ± 2.5,85.5 ± 2.6,89.69 ± 2.9,101.79 ± 2.9,95.1 ± 1,98.1 ± 1,100.2 ± 1,102.2 ± 1,106.1 ± 1,COC1CCCC1 [methoxycyclopentane]
